# How the values were obtained:
# [1] = test system: vascular wall; assay: Vascular wall distensibility by echo-Doppler in cardiovascular patients (antiatherosclerotic action); format: in vivo; conditions: 30 mg/day intramuscular
# Excerpt: (§1) The technology used to show the hemodynamic changes was of the non-invasivetype, as in this way experiments can be repeated and are completely innoxious for the patient. Of all the non-invasive methods of diagnosis we selected the most reliable of actual conditions, which is the method of ultrasounds (echo and Doppler's effects). The bidimensional echocardiography in real time, combined with pulsatile Doppler and the bidimensional vascular echography combined with pulsatile Doppler hemodynamic, are actually the two most reliable non-invasive techniques for the study of the anatomic changes and macroscopic hemodynamics with regard to the cardiovascular apparatus. That's why we used for the study of the clinical effects of the 2,4,6-triiodophenol an echo-Doppler trade mark ATL (Mark V), being the transmission frequency of 3 MHz, as well as a continuous Doppler trade mark SONICAID of 4 and 8 MHz.
# (§2) Patients were divided in four statistically acceptable groups (50 in each group), comparing the results obtained with this medicament before, during and after the treatment.
# (§3) Methodologically there are practiced echographical cuts in real time of the heart, big vases, supra-aortic trunks, abdominal aorta, portal and caval systems and iliac and femoral arteries, obtaining fluxmetric samples Doppler in all the mentioned cardiac cavities and blood vessels to study the sense of the flow, outflow (stream) or volume of flow and the hemodynamic features of the sanguineous flow.
# (§4) Hereunder we expose the clinical results obtained after the administration during three months of the 2,4,6-triiodophenol in 200 cardiovascular patients.
# (§5) Sick persons were divided in 4 groups; (1) 50 patients with cerebral vascular insufficiency, (2) 50 patients with coronary insufficiency, (3) 50 patients with hepatic insufficiency and (4) 50 patients with peripheral vascular insufficiency of the lower extremities. All these persons received an intramuscular administration, a dosage of 30 mg/day of 2,4,6-triiodophenol, carrying out controls at the first, second and third month of all angiohemodynamic parameters, supposing a total of 600 controls (150 per each group after the three months).
# [2] = test system: velocity of blood flow; assay: Speed of flow by echo-Doppler in cardiovascular patients (fluidifying + hemodynamizing action); format: in vivo; conditions: 30 mg/day intramuscular
# Excerpt: as §1, §2, §3, §4, §5
# [3] = test system: waste (minute volume); assay: Waste / minute volume by echo-Doppler in cardiovascular patients (peripheral hyperemia); format: in vivo; conditions: 30 mg/day intramuscular
# Excerpt: as §1, §2, §3, §4, §5
# [4] = test system: granuloma formed around cotton implant; assay: Cotton implant granuloma test; format: in vivo, rats; conditions: 72 hours
# Method: (B) To a group of 10 rats of about 200-225 g is implanted at the dorsal zone, subcutaneously, balled cotton (about 9 mg) impregnated and afterwards dried with a solution of medicamentous substance and which amount is known.
# We use as reference Dexamethasone and controls without medicament.
# After 72 hours, once the animal is sacrificed, the granuloma formed around the implant is extracted and weighed, after drying at 100° C.
# The antiinflammatory reduces the weight of the granuloma.
# [5] = test system: sensation of pain on hot plate; assay: Hot plate test at 56° C; format: in vivo, mice
# Method: (A) To control analgesic activity we use mice of about 25 g by weight, in groups of ten mice, subjected to the test of the hot plate at 56° C.
# Animals receive a medicamentous injection of 0.1 ml of solubilized aspirin with sodium bicarbonate, or of solubilized triiodophenol at pH 9'5.
# Controls receive physiologic serum.
# The time in which the animals indicate sensation of pain is measured with a chronometer.
# In the hereunder table the results testing animals, 15 min. and 30 min. after the medication. Average values are taken of each group.
# [6] = test system: arthrosis and atherosclerosis patients; assay: Summary of 175 clinic cases treated; format: in vivo
# Excerpt: Summary of 175 clinic cases treated with 2,4,6-triiodophenol.
# [7] = Solubility; format: physicochemical
# [8] = cerebral atherosclerosis, 37 patients
# [9] = cervical arthrosis, 34 patients
# [10] = obliterant atherosclerosis, 14 patients
# [11] = vertebral arthrosis, 56 patients
smiles,measurement,setting,value
"Oc1c(I)cc(I)cc1I [2,4,6-triiodophenol]","Distensibility, abdominal aorta, variation (Δ %)",[1]; 2nd month,+29%
same,"Distensibility, caval iliac artery, variation (Δ %)",[1]; 2nd month,+28%
same,"Distensibility, portal carotid aorta, variation (Δ %)",[1]; 2nd month,+27%
same,"Distensibility, portal vein, variation (Δ %)",[1]; 2nd month,"+29,5%"
same,"Distensibility, post caval system, variation (Δ %)",[1]; 2nd month,+12%
same,"Distensibility, thoracic aorta, variation (Δ %)",[1]; 2nd month,+11%
same,"Distensibility, abdominal aorta, variation (Δ %)",[1]; 3rd month,+31%
same,"Distensibility, average value (arteries), variation (Δ %)",[1]; 3rd month,+26%
same,"Distensibility, average value (veins), variation (Δ %)",[1]; 3rd month,+24%
same,"Distensibility, caval iliac artery, variation (Δ %)",[1]; 3rd month,"+29,5%"
same,"Distensibility, portal carotid aorta, variation (Δ %)",[1]; 3rd month,+30%
same,"Distensibility, portal vein, variation (Δ %)",[1]; 3rd month,+32%
same,"Distensibility, post caval system, variation (Δ %)",[1]; 3rd month,+15%
same,"Distensibility, thoracic aorta, variation (Δ %)",[1]; 3rd month,+14%
same,Improvement of the parietal dynamic of all arteries,"[1]; conclusions, three months",26%
same,Improvement of the parietal dynamic of veins,"[1]; conclusions, three months",24%
same,"Distensibility, abdominal aorta, variation (Δ %)",[1]; first month,+18%
same,"Distensibility, caval iliac artery, variation (Δ %)",[1]; first month,+12%
same,"Distensibility, portal carotid aorta, variation (Δ %)",[1]; first month,+17%
same,"Distensibility, portal vein, variation (Δ %)",[1]; first month,+15%
same,"Distensibility, post caval system, variation (Δ %)",[1]; first month,+7%
same,"Distensibility, thoracic aorta, variation (Δ %)",[1]; first month,+7%
same,"Speed of flow, abdominal aorta, variation (Δ %)",[2]; 1st month,+3%
same,"Speed of flow, caval iliac artery, variation (Δ %)",[2]; 1st month,+7%
same,"Speed of flow, portal carotid aorta, variation (Δ %)",[2]; 1st month,+11%
same,"Speed of flow, portal system, variation (Δ %)",[2]; 1st month,+16%
same,"Speed of flow, postcaval system, variation (Δ %)",[2]; 1st month,+8%
same,"Speed of flow, thoracic aorta, variation (Δ %)",[2]; 1st month,+2%
same,"Speed of flow, abdominal aorta, variation (Δ %)",[2]; 2nd month,+5%
same,"Speed of flow, caval iliac artery, variation (Δ %)",[2]; 2nd month,+11%
same,"Speed of flow, portal carotid aorta, variation (Δ %)",[2]; 2nd month,+14%
same,"Speed of flow, portal system, variation (Δ %)",[2]; 2nd month,+21%
same,"Speed of flow, postcaval system, variation (Δ %)",[2]; 2nd month,+12%
same,"Speed of flow, thoracic aorta, variation (Δ %)",[2]; 2nd month,+3%
same,"Speed of flow, abdominal aorta, variation (Δ %)",[2]; 3rd month,+7%
same,"Speed of flow, average value (arteries), variation (Δ %)",[2]; 3rd month,+11%
same,"Speed of flow, average value (veins), variation (Δ %)",[2]; 3rd month,+17%
same,"Speed of flow, caval iliac artery, variation (Δ %)",[2]; 3rd month,+14%
same,"Speed of flow, portal carotid aorta, variation (Δ %)",[2]; 3rd month,+19%
same,"Speed of flow, portal system, variation (Δ %)",[2]; 3rd month,+29%
same,"Speed of flow, postcaval system, variation (Δ %)",[2]; 3rd month,+15%
same,"Speed of flow, thoracic aorta, variation (Δ %)",[2]; 3rd month,+5%
same,Increase of speed of the sanguineous flow in the arteries,"[2]; conclusions, three months",11%
same,Increase of speed of the sanguineous flow in the veins,"[2]; conclusions, three months",17%
same,"Cardiac waste, variation (Δ %)",[3]; 1st month,+5%
same,"Cerebral minute volume, variation (Δ %)",[3]; 1st month,+23%
same,"Hepatic minute volume (venous), variation (Δ %)",[3]; 1st month,+24%
same,"Lower extremity minute volume, variation (Δ %)",[3]; 1st month,+10%
same,"Cardiac waste, variation (Δ %)",[3]; 2nd month,+6%
same,"Cerebral minute volume, variation (Δ %)",[3]; 2nd month,"+27,6%"
same,"Hepatic minute volume (venous), variation (Δ %)",[3]; 2nd month,+16%
same,"Lower extremity minute volume, variation (Δ %)",[3]; 2nd month,+24%
same,"Cardiac waste, variation (Δ %)",[3]; 3rd month,+11%
same,"Cerebral minute volume, variation (Δ %)",[3]; 3rd month,+34%
same,"Hepatic minute volume (venous), variation (Δ %)",[3]; 3rd month,+23%
same,"Lower extremity minute volume, variation (Δ %)",[3]; 3rd month,+30%
same,"Increase of volume of flow, cerebral","[3]; conclusions, three months",34%
same,"Increase of volume of flow, hepatic","[3]; conclusions, three months",23%
same,"Increase of volume of flow, lower member","[3]; conclusions, three months",30%
same,"Increase of volume of flow, systemic circulatory minute","[3]; conclusions, three months",11%
same,% Reduction of the granuloma (Average),[4]; 100 micrograms per implant,19%
same,% Reduction of the granuloma (Average),[4]; 200 micrograms per implant,28%
same,% Reduction of the granuloma (Average),[4]; 400 micrograms per implant,44%
same,Time to sensation of pain,"[5]; 1 mg/kg injection, 15 minutes","6,5 sec."
same,Time to sensation of pain,"[5]; 1 mg/kg injection, 30 minutes","6,7 sec."
same,Time to sensation of pain,"[5]; 10 mg/kg injection, 15 minutes","11,7 sec."
same,Time to sensation of pain,"[5]; 10 mg/kg injection, 30 minutes","11,8 sec."
same,"% obtained results, B. (good)",[6]; [8],"6,25%"
same,"% obtained results, E. (excellent)",[6]; [8],"81,25%"
same,"% obtained results, N. (null)",[6]; [8],"3,15%"
same,"% obtained results, R. (regular)",[6]; [8],"9,35%"
same,"% obtained results, B. (good)",[6]; [9],"3,22%"
same,"% obtained results, E. (excellent)",[6]; [9],"90,34%"
same,"% obtained results, N. (null)",[6]; [9],"3,22%"
same,"% obtained results, R. (regular)",[6]; [9],"3,22%"
same,"% obtained results, B. (good)","[6]; hip arthrosis, 13 patients","23,10%"
same,"% obtained results, B. (good)","[6]; knee arthrosis, 16 patients","12,5%"
same,"% obtained results, E. (excellent)","[6]; knee arthrosis, 16 patients","81,25%"
same,"% obtained results, R. (regular)","[6]; knee arthrosis, 16 patients","6,25%"
same,"% obtained results, B. (good)","[6]; lumbar arthrosis, 4 patients",25%
same,"% obtained results, E. (excellent)","[6]; lumbar arthrosis, 4 patients",50%
same,"% obtained results, R. (regular)","[6]; lumbar arthrosis, 4 patients",25%
same,"% obtained results, E. (excellent)","[6]; obliterant arthrosis, 1 patient",100%
same,"% obtained results, B. (good)",[6]; [10],"7,15%"
same,"% obtained results, E. (excellent)",[6]; [10],"92,85%"
same,"(B) Good result, % of patients",[6]; total 175 patients,"7,43%"
same,"(B) Good result, number of patients",[6]; total 175 patients,13
same,"(E) Excellent result, % of patients",[6]; total 175 patients,"82,86%"
same,"(E) Excellent result, number of patients",[6]; total 175 patients,145
same,"(N) Null result, % of patients",[6]; total 175 patients,"1,71%"
same,"(N) Null result, number of patients",[6]; total 175 patients,3
same,"(R) Regular result, % of patients",[6]; total 175 patients,"8,00%"
same,"(R) Regular result, number of patients",[6]; total 175 patients,14
same,"% obtained results, B. (good)",[6]; [11],"10,42%"
same,"% obtained results, E. (excellent)",[6]; [11],"83,33%"
same,"% obtained results, R. (regular)",[6]; [11],"6,25%"
same,Solubility in alkali solutions,[7]; alkali solutions,soluble
same,Solubility in chloroform and dichloromethane,[7]; chloroform and dichloromethane,very soluble
same,Solubility in organic dissolvents,"[7]; ethylic and propylic alcohols, acetone and sulfuric ether",somewhat soluble
same,Solubility in water,[7]; water,not very soluble

# — patent publication US4727090A, “Process for preparing and therapeutical applications of the 2,4,6-triiodophenol” (Bislak, S.A., priority 1983, dated 1988)
